# Data as given in US6399599B1, “Substituted 2-oxo-1,4-diazacycloalkanes” (Novartis AG, priority 1999, dated 2002).
# System: allergic contact dermatitis (oxazolone, elicitation phase)
# Assay: Allergic contact dermatitis (ACD), oxazolone
# Format: in vivo
# Details: female NMRI mice, 24 h after challenge
# Source text: ii) Allergic Contact Dermatitis (ACD)
# Groups of 8 female NMRI mice are sensitized on the shaved abdomen with 50 —l of oxazolone (Sigma, 2% in acetone) and challenged with 10 —l of 0.2 or 2.0% oxazolone on the inner surface of the right ear 7 days later. The low concentration of oxazolone for induction of the elicitation phase is used for testing compounds on […] whereas the high concentration is applied for […] testing. The unchallenged left ears serve as normal controls and dermatitis is evaluated from the individual differences in pinnal weight, which is taken as a measure of increase in inflammatory swelling 24 h after the challenge. Dermatitis is evaluated in test- and for comparison in control groups. The test groups are treated with the test compounds either orally (twice, 2 h and immediately before challenge), subcutaneously (immediately before challenge) or topically (30 min after challenge at the site of elicitation of the ACD); the controls are treated similarly with the vehicles alone. […] The data of the test-and the vehicle-treated control groups are statistically analysed by ANOVA followed by Dunnet T-test (normal distribution or data) or by H and U-test, respectively. […]
smiles,measurement,setting,value
"C[C@@H]1CCN([C@H](Cc2cccc3ccccc23)C(N)=O)C(=O)[C@H](c2ccccc2)N1C(=O)Cc1ccc2ncccc2c1 [Example 3, (R)-2-[(3S,5R)-5Methyl-2-oxo-3-phenyl-4-(quinolin-6-yl-acetyl)-[1,4]diazepan-1-yl]-3-(naphthalen-1-yl)-propionamide]",inhibiting effect in allergic contact dermatitis (pinnal weight),applied topically at a dose of 10 mM,50%
same,inhibiting effect in allergic contact dermatitis (pinnal weight),p.o. at a dose of 2×3 mg/kg,40%
